Test results taken from patent US8003660B2, “Modulators of muscarinic receptors” (Vertex Pharmaceuticals Incorporated, priority 2006, dated 2011).
Read-outs that look alike come from different tables or passages of the source.

What was measured:
Format in all cases: cell-based
M3 muscarinic receptor = biological target: T1, M3 muscarinic receptor (Homo sapiens, UniProt P20309); experiment: Functional mobilization of intracellular calcium (FLIPR) in CHO cells expressing M3; settings: for EC50: CHO cells expressing M3, FLIPR calcium; for Emax: CHO; for M3 Activity: CHO cells expressing M3, FLIPR calcium assay
T1 construct: expressed in transfected cells; host or cells: CHO (M3-CHO)
T1 sequence (P20309 whole entry): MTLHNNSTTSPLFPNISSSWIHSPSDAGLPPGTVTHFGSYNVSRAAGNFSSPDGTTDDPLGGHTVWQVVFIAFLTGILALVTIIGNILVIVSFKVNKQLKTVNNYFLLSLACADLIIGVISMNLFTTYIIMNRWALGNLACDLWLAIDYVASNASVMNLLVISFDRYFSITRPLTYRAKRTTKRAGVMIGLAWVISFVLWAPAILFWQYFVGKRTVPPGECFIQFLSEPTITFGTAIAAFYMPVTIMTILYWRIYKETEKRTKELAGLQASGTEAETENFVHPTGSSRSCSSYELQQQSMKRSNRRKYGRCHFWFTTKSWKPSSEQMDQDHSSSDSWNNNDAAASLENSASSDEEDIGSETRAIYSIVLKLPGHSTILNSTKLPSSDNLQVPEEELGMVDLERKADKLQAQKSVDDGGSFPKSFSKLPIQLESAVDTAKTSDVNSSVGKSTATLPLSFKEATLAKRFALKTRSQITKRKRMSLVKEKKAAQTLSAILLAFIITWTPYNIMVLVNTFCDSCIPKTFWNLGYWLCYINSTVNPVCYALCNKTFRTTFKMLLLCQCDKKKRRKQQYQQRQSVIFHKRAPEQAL
Procedure, shortened: (§1)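 Calcium flux is read on FLIPR over 60 sec at 488/540 nm in muscarinic-receptor CHO lines. Antagonist mode adds carbachol at EC80 after 15 min compound preincubation or with simultaneous co-application. Agonist mode adds compound alone. Cells carry Fluo-3 or Calcium 3 dye in probenecid-containing pH 7.4 buffer, 0.5% DMSO final.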

M4 muscarinic receptor = biological target: T2, M4 muscarinic receptor (Homo sapiens, UniProt P08173); experiment: Functional mobilization of intracellular calcium (FLIPR) in CHO cells expressing M4; settings: for EC50: CHO cells expressing M4, FLIPR calcium; for Emax: CHO; for M4 Activity: CHO cells expressing M4, FLIPR calcium assay
T2 construct: expressed in transfected cells; host or cells: CHO (M4-CHO)
T2 sequence (P08173 1-479): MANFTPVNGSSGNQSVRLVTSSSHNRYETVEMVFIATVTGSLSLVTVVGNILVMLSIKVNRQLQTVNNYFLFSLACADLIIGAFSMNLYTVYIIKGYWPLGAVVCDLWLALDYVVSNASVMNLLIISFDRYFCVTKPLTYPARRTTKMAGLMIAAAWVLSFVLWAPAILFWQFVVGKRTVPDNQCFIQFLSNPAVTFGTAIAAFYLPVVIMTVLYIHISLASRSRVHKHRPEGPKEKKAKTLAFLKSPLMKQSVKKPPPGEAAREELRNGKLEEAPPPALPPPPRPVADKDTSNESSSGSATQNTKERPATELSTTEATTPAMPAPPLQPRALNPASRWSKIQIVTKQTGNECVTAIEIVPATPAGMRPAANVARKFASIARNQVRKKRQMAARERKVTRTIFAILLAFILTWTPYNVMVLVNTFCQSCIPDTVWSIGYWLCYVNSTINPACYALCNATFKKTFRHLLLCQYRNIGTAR
Procedure, shortened: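 Read-out: FLIPR fluorescence (ex 488, em 540 nm) over 60 s. Recombinant CHO lines are dye-loaded (Fluo-3 AM or Calcium 3) with 1 mM probenecid. For antagonist mode, compound is pre-incubated 15 min, or co-applied, then carbachol is added at 3× EC80 per subtype.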

M2 muscarinic receptor = biological target: T3, M2 muscarinic receptor (Homo sapiens, UniProt P08172); experiment: Functional mobilization of intracellular calcium (FLIPR) in CHO cells expressing M2; settings: for EC50: CHO cells expressing M2, FLIPR calcium; for Emax: CHO; for M2 Activity: CHO cells expressing M2, FLIPR calcium assay
T3 construct: expressed in transfected cells; host or cells: CHO (M2-CHO)
T3 sequence (P08172 1-466): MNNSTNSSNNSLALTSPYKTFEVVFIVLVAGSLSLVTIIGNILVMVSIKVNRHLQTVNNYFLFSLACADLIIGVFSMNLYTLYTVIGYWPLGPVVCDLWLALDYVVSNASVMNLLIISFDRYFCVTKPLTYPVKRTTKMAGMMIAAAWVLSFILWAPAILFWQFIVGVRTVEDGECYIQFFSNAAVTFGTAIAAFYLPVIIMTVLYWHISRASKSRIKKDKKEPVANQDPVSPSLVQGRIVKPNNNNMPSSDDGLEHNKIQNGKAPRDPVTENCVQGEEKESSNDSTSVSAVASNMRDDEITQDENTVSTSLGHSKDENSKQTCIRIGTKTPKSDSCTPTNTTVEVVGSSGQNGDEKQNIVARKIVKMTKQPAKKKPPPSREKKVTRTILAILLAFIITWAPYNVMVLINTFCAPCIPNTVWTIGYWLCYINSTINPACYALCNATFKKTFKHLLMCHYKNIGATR
Procedure, shortened: as §1

M1 muscarinic receptor = biological target: T4, M1 muscarinic receptor (Homo sapiens, UniProt P11229); experiment: Functional mobilization of intracellular calcium (FLIPR) in CHO cells expressing M1; settings: for EC50: CHO cells expressing M1, FLIPR calcium; for Emax: CHO; for M1 Activity: CHO cells expressing M1, FLIPR calcium assay
T4 construct: expressed in transfected cells; host or cells: CHO (M1-CHO)
T4 sequence (P11229 1-460): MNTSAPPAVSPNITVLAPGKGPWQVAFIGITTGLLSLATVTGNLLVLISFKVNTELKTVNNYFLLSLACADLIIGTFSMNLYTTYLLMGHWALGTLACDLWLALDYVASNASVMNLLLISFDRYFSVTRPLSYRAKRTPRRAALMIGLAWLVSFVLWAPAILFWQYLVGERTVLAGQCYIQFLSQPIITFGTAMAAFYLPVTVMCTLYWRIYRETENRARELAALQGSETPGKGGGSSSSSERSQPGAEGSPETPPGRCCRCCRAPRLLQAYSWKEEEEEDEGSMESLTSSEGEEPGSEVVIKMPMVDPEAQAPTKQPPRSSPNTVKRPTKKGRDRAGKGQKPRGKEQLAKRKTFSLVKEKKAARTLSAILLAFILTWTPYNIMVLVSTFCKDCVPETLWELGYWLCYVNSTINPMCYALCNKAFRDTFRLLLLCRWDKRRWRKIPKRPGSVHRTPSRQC
Procedure, shortened: as §1

[1] = 100% = maximum response obtained with the Carbachol control
[2] = 100% = maximum response obtained with the Carbachol control, read-out: M3 Efficacy
[3] = 100% = maximum response obtained with the Carbachol control, read-out: M4 Efficacy
[4] = 100% = maximum response obtained with the Carbachol control, read-out: M2 Efficacy
[5] = 100% = maximum response obtained with the Carbachol control, read-out: M1 Efficacy
[6] = 100% efficacy = maximum response obtained with the Carbachol control

Row | SMILES | M3 Efficacy (M3 muscarinic receptor; [1]) | EC50 (M3 muscarinic receptor) | M4 Efficacy (M4 muscarinic receptor; [1]) | EC50 (M4 muscarinic receptor) | M2 Efficacy (M2 muscarinic receptor; [1]) | EC50 (M2 muscarinic receptor) | M1 Efficacy (M1 muscarinic receptor; [1]) | EC50 (M1 muscarinic receptor) | Emax (M3 muscarinic receptor; [2]) | Emax (M4 muscarinic receptor; [3]) | Emax (M2 muscarinic receptor; [4]) | Emax (M1 muscarinic receptor; [5]) | M3 Activity (M3 muscarinic receptor) | Emax (M3 muscarinic receptor; [6]) | M4 Activity (M4 muscarinic receptor) | Emax (M4 muscarinic receptor; [6]) | M2 Activity (M2 muscarinic receptor) | Emax (M2 muscarinic receptor; [6]) | M1 Activity (M1 muscarinic receptor) | Emax (M1 muscarinic receptor; [6])
1 | CC(C)(C)CCN1CCC2(CC[C@H](NC(=O)c3cccnc3)c3ccccc32)CC1 [compound 74] | + (efficacy was calculated to be less than 25%) | > 5 µM | ++ (efficacy was calculated to be from 100% to 25%) | < 2 µM | ++ (efficacy was calculated to be from 100% to 25%) | < 2 µM | ++ (efficacy was calculated to be from 100% to 25%) | < 2 µM |  |  |  |  |  |  |  |  |  |  |  | 
2 | Cn1cnc(C(=O)N[C@H]2CCC3(CCN(CCC(C)(C)C)CC3)c3cc(F)ccc32)c1 [compound 165] |  | > 5 µM |  | < 2 µM |  | < 2 µM |  | < 2 µM | < 25% | 25 to 100% | 25 to 100% | 25 to 100% |  |  |  |  |  |  |  | 
3 | CC(=O)N(C(C)C)[C@H]1CCC2(CCN(CCC(C)(C)C)CC2)c2ccccc21 [compound 154] |  | > 5 µM |  | < 2 µM |  | > 5 µM |  | < 2 µM | < 25% | 25 to 100% | < 25% | 25 to 100% |  |  |  |  |  |  |  | 
4 | C[C@H](C(=O)N[C@@H]1CCC2(CCN(CCC(C)(C)C)CC2)c2cc(F)ccc21)N1CCCC1=O [compound 78] |  | > 5 µM |  | < 2 µM |  | < 2 µM |  | < 2 µM | < 25% | 25 to 100% | 25 to 100% | 25 to 100% |  |  |  |  |  |  |  | 
5 | CC(C)(C)CCN1CCC2(CC[C@@H](NC(=O)CC3CCOCC3)c3ccccc32)CC1 [compound 152] |  | > 5 µM |  | < 2 µM |  | > 5 µM |  | > 5 µM | < 25% | 25 to 100% | < 25% | < 25% |  |  |  |  |  |  |  | 
6 | CC(=O)N[C@H]1CCC2(CCN(CC=C(C)C)CC2)c2ccccc21 [compound 150] |  | > 5 µM |  | 2 to 5 µM |  | > 5 µM |  | > 5 µM | < 25% | 25 to 100% | < 25% | 25 to 100% |  |  |  |  |  |  |  | 
7 | CC(C)(C)CCN1CCC2(CC1)CC(F)(F)C(O)c1ccccc12 (stereo not drawn) [compound 120] |  | > 5 µM |  | < 2 µM |  | < 2 µM |  | < 2 µM | < 25% | 25 to 100% | 25 to 100% | 25 to 100% |  |  |  |  |  |  |  | 
8 | CC(C)(C)CCN1CCC2(CC[C@H](NC(=O)C3CCOCC3)c3ccc(F)cc32)CC1 [compound 202] |  |  |  |  |  |  |  |  |  |  |  |  | + (activity was measured to be greater than 5.0 μM) | < 25% | +++ (activity was measured to be less than 2.0 μM) | 25 to 100% | + (activity was measured to be greater than 5.0 μM) | < 25% | +++ (activity was measured to be less than 2.0 μM) | 25 to 100%
9 | CC(=O)N1CCCC[C@@H]1C(=O)N[C@@H]1CCC2(CCN(CCC(C)(C)C)CC2)c2cc(F)ccc21 [compound 149] |  | > 5 µM |  | < 2 µM |  | 2 to 5 µM |  | 2 to 5 µM | < 25% | 25 to 100% | 25 to 100% | 25 to 100% |  |  |  |  |  |  |  | 
10 | CCN(C(=O)CCNC(C)=O)[C@H]1CCC2(CCN(CCC(C)(C)C)CC2)c2ccccc21 [compound 187] |  |  |  |  |  |  |  |  |  |  |  |  | + (activity was measured to be greater than 5.0 μM) | < 25% | +++ (activity was measured to be less than 2.0 μM) | 25 to 100% | + (activity was measured to be greater than 5.0 μM) | < 25% | +++ (activity was measured to be less than 2.0 μM) | 25 to 100%
11 | CC(C)(C)CCN1CCC2(CC[C@H](NC(=O)[C@H]3CCC(=O)N3)c3ccc(F)cc32)CC1 [compound 203] |  |  |  |  |  |  |  |  |  |  |  |  | + (activity was measured to be greater than 5.0 μM) | < 25% | +++ (activity was measured to be less than 2.0 μM) | 25 to 100% | +++ (activity was measured to be less than 2.0 μM) | 25 to 100% | +++ (activity was measured to be less than 2.0 μM) | 25 to 100%
12 | CC(C)(C)CCN1CCC2(CC[C@H](N3CCCC3=O)c3ccc(F)cc32)CC1 [compound 91] |  | > 5 µM |  | < 2 µM |  | < 2 µM |  | < 2 µM | < 25% | 25 to 100% | < 25% | 25 to 100% |  |  |  |  |  |  |  | 
13 | CC(C)(C)CCN1CCC2(CC[C@@H](NC(=O)C3CCCO3)c3ccccc32)CC1 (stereo partly drawn) [compound 220] |  |  |  |  |  |  |  |  |  |  |  |  | + (activity was measured to be greater than 5.0 μM) | < 25% | +++ (activity was measured to be less than 2.0 μM) | 25 to 100% | + (activity was measured to be greater than 5.0 μM) | < 25% | + (activity was measured to be greater than 5.0 μM) | < 25%
14 | CCN(C(=O)C1CCC(=O)C1)[C@H]1CCC2(CCN(CCC(C)(C)C)CC2)c2ccccc21 (stereo partly drawn) [compound 44] |  | > 5 µM |  | < 2 µM |  | > 5 µM |  | 2 to 5 µM | < 25% | 25 to 100% | < 25% | 25 to 100% |  |  |  |  |  |  |  | 
15 | CC(C)(C)CCN1CCC2(CC1)C[C@H](NC(=O)C1CC1)c1ccccc12 [compound 300] |  |  |  |  |  |  |  |  |  |  |  |  | + (activity was measured to be greater than 5.0 μM) | < 25% | +++ (activity was measured to be less than 2.0 μM) | < 25% | + (activity was measured to be greater than 5.0 μM) | < 25% | +++ (activity was measured to be less than 2.0 μM) | 25 to 100%
16 | CCN(C(=O)C1CCOC(C)(C)C1)[C@H]1CCC2(CCN(CCC(C)(C)C)CC2)c2ccccc21 (stereo partly drawn) [compound 30] |  | > 5 µM |  | 2 to 5 µM |  | > 5 µM |  | > 5 µM | < 25% | 25 to 100% | < 25% | < 25% |  |  |  |  |  |  |  | 
17 | CCn1cc(C(=O)N[C@H]2CCC3(CCN(CCC(C)(C)C)CC3)c3ccccc32)cn1 [compound 69] | + (efficacy was calculated to be less than 25%) | > 5 µM | ++ (efficacy was calculated to be from 100% to 25%) | < 2 µM | + (efficacy was calculated to be less than 25%) | > 5 µM | + (efficacy was calculated to be less than 25%) | > 5 µM |  |  |  |  |  |  |  |  |  |  |  | 
18 | C[C@H](C(=O)N[C@H]1CCC2(CCN(CCC(C)(C)C)CC2)c2ccccc21)N1CCCC1=O [compound 109] |  | > 5 µM |  | < 2 µM |  | > 5 µM |  | < 2 µM | < 25% | 25 to 100% | < 25% | 25 to 100% |  |  |  |  |  |  |  | 
